Experimental data reported in PubChem BioAssay AID330 (DTP/NCI, 2004).
Inconclusive results and toxic doses are left out. Rule for the calls: active = survival T/C of 150% or more; inactive = T/C below 125% in these data.

Tested on: P388 leukemia ip, CD2F1 mice, survival T/C
Test: NCI In Vivo Anticancer Drug Screen. Data for tumor model P388 Leukemia (intraperitoneal) in CD2F1 (CDF1) mice
Conditions: endpoint: median survival time, higher = longer survival
How it was run: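 Mice carrying the transplanted tumor received test compound or vehicle. Survival was recorded in each group, and the value is the treated-group measurement divided by that of the vehicle-treated control group.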

[1] = dose: 60.0 mg/kg/injection, schedule: Q01DX005 (ip), vehicle: saline
[2] = dose: 120.0 mg/kg/injection, schedule: Q01DX005 (ip), vehicle: saline
[3] = dose: 240.0 mg/kg/injection, schedule: Q01DX005 (ip), vehicle: saline

Measured: T/C

CNC=O
inactive: dose: 80.0 mg/kg/injection, schedule: Q01DX005 (ip), vehicle: water 108 % of control | dose: 160.0 mg/kg/injection, schedule: Q01DX005 (ip), vehicle: water 115 % of control | dose: 197.6 mg/kg/injection, schedule: Q01DX005 (ip), vehicle: saline 116 % of control | dose: 197.6 mg/kg/injection, schedule: Q01DX005 (iv), vehicle: saline 120 % of control | dose: 296.3 mg/kg/injection, schedule: Q01DX005 (ip), vehicle: water 107 % of control | dose: 296.5 mg/kg/injection, schedule: Q01DX001 (ip), vehicle: saline 101 % of control | dose: 296.5 mg/kg/injection, schedule: Q01DX001 (iv), vehicle: saline 100 % of control | dose: 320.0 mg/kg/injection, schedule: Q01DX005 (ip), vehicle: water 118 % of control | dose: 444.4 mg/kg/injection, schedule: Q01DX005 (ip), vehicle: water 122 % of control | dose: 444.5 mg/kg/injection, schedule: Q01DX001 (ip), vehicle: saline 104 % of control | dose: 444.5 mg/kg/injection, schedule: Q01DX001 (iv), vehicle: saline 103 % of control | dose: 444.5 mg/kg/injection, schedule: Q01DX001 (oral), vehicle: saline 103 % of control | dose: 444.5 mg/kg/injection, schedule: Q01DX009 (ip), vehicle: saline 98 % of control | dose: 666.7 mg/kg/injection, schedule: Q01DX001 (ip), vehicle: saline 107 % of control | dose: 666.7 mg/kg/injection, schedule: Q01DX001 (iv), vehicle: saline 111 % of control | dose: 666.7 mg/kg/injection, schedule: Q01DX001 (oral), vehicle: saline 114 % of control | dose: 666.7 mg/kg/injection, schedule: Q01DX009 (ip), vehicle: saline 93 % of control | dose: 666.7 mg/kg/injection, schedule: Q01DX009 (oral), vehicle: saline 98 % of control | dose: 1000.0 mg/kg/injection, schedule: Q01DX001 (ip), vehicle: saline 116 % of control | dose: 1000.0 mg/kg/injection, schedule: Q01DX001 (iv), vehicle: saline 119 % of control | dose: 1000.0 mg/kg/injection, schedule: Q01DX001 (oral), vehicle: saline 116 % of control | dose: 1000.0 mg/kg/injection, schedule: Q01DX005 (iv), vehicle: saline 86 % of control | dose: 1000.0 mg/kg/injection, schedule: Q01DX005 (oral), vehicle: saline 95 % of control | dose: 1000.0 mg/kg/injection, schedule: Q01DX009 (oral), vehicle: saline 98 % of control | dose: 1500.0 mg/kg/injection, schedule: Q01DX001 (ip), vehicle: saline 120 % of control | dose: 1500.0 mg/kg/injection, schedule: Q01DX005 (oral), vehicle: saline 86 % of control
active: dose: 444.5 mg/kg/injection, schedule: Q01DX009 (oral), vehicle: saline 173 % of control | dose: 666.7 mg/kg/injection, schedule: Q01DX005 (ip), vehicle: saline 156 % of control | dose: 666.7 mg/kg/injection, schedule: Q01DX005 (ip), vehicle: water 166 % of control | dose: 1280.0 mg/kg/injection, schedule: Q01DX005 (ip), vehicle: water 161 % of control

O=c1c2ncn(C3OC(CO)C(O)C3O)c2nc2n(C3OC(CO)C(O)C3O)cnn12 (centres undefined)
inactive: [1] 109 % of control | [2] 117 % of control | [3] 122 % of control

O=C(O)C1=C/C(=C(/c2ccccc2)c2cc(C(=O)O)c(O)c3ccccc23)c2ccccc2C1=O
inactive: dose: 50.0 mg/kg/injection, schedule: Q01DX009 (ip), vehicle: saline 99 % of control | [1] 104 % of control | dose: 100.0 mg/kg/injection, schedule: Q01DX009 (ip), vehicle: saline 100 % of control | [2] 103 % of control | dose: 200.0 mg/kg/injection, schedule: Q01DX009 (ip), vehicle: saline 103 % of control | [3] 95 % of control

COc1cc2cc[n+](C)c(Cc3ccccc3)c2cc1OC
active: dose: 50.0 mg/kg/injection, schedule: Q01DX009 (ip), vehicle: Klucel (hydroxypropylcellulose) (HPC) 160 % of control
inactive: dose: 3.12 mg/kg/injection, schedule: Q01DX009 (ip), vehicle: Klucel (hydroxypropylcellulose) (HPC) 111 % of control | dose: 6.25 mg/kg/injection, schedule: Q01DX009 (ip), vehicle: Klucel (hydroxypropylcellulose) (HPC) 111 % of control | dose: 12.5 mg/kg/injection, schedule: Q01DX009 (ip), vehicle: Klucel (hydroxypropylcellulose) (HPC) 114 % of control | dose: 25.0 mg/kg/injection, schedule: Q01DX009 (ip), vehicle: Klucel (hydroxypropylcellulose) (HPC) 121 % of control
